Drawing on paper PMC9174938, “1,4-Dihydropyridine as a Promising Scaffold for Novel Antimicrobials Against Helicobacter pylori” (Frontiers in Microbiology, 2022), this text covers Kd for six molecules.

For this assay, the target named is T1, HsrA (HP1043) (Helicobacter pylori, UniProt O25684).
T1 construct: gene HP_1043
T1 sequence (O25684 1-223): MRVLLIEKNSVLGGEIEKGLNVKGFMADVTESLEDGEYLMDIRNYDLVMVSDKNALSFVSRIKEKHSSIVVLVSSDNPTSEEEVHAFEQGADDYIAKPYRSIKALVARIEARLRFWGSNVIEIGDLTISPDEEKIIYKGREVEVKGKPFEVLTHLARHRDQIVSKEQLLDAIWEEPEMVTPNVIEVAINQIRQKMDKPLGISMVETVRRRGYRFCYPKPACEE
Kind of assay: isothermal titration calorimetry. In kind it is binding. The note with it: read-out: ITC^1 / Kd. The text has this: isothermal titration calorimetry on HsrA (HP1043)
On to `CC1=C(C(=O)OCc2ccccc2)C(c2cc(Br)cc(Br)c2O)C2=C(CCC(C)(C)C2=O)N1` (stereo not drawn) [HM4], for which the Kd is 4 µM.
In the case of `CC1=C(C(=O)OCc2ccccc2)C(c2cc(Br)cc([N+](=O)[O-])c2O)C2=C(CCC(C)(C)C2=O)N1` (stereo not drawn) [HM6], the Kd is 5.4 µM.
The same measure for `CC1=C(C(=O)OCC(C)C)C(c2cc([N+](=O)[O-])ccc2O)C2=C(CC(C)(C)CC2=O)N1` (stereo not drawn) [MD1]: 3.5 µM; for `CC1=C(C(=O)OCC(C)C)C(c2cccc([N+](=O)[O-])c2)C2=C(CC(C)(C)CC2=O)N1` (stereo not drawn) [MD2]: 16 µM.
`CC1=C(C(=O)OCC(C)C)C(c2cc(Br)ccc2O)C2=C(CC(C)(C)CC2=O)N1` (stereo not drawn) [MD6]: the Kd turned out to be 25 µM.
The same measure for `CC1=C(C(=O)OCC(C)C)C(c2cc(Br)cc([N+](=O)[O-])c2O)C2=C(CC(C)(C)CC2=O)N1` (stereo not drawn) [MD7]: 23 µM.
